For data set [1], the system named is cells from patients having Amyotrophic Lateral Sclerosis (ALS) (Coriell ND29523). The data set is described as follows: Fibroblast screen similar to Example 12, ALS cells. It is filed as cell-based. As to conditions: Homo sapiens.
For data set [2], the system named is cells from patients having Leigh Syndrome (Coriell GMOI503A). The data set is described as follows: Fibroblast screen similar to Example 12, Leigh Syndrome cells. As to conditions: Homo sapiens. It is filed as cell-based.
For a further data set, the system named is auditory HEI-OC 1 cells. Put plainly: Protection from cisplatin-induced ototoxicity (caspase3/7 activity). The conditions noted are these: overnight pretreatment, 24 hours of 50 uM cisplatin. It is filed as cell-based, mice. Here is the method: The conditionally immortalized auditory HEI-OC 1 cells from long-term cultures of transgenic mice Immortomouse™ cochleas as described in Kalinec, G. et al., Audiol. Nerootol. 2003; 8, 177-189/. were maintained in high glucose Dulbecco’s modified Eagle medium (DMEM) containing 10% FBS under permissive conditions, 33° C., 10%CO2. Cells were pretreated overnight with (R)-2-hydroxy-2-methyl-4-(2,4,5-trimethyl-3,6-dioxocyclohexa-1,4-dienyl)butanamide, and apoptosis was detected by caspase3/7 activity after 24 hours of 50 uM cisplatin incubation. Cells incubated in diluent alone were the controls.

In data set [3] the test system is Human dermal fibroblasts from Friedreich’s Ataxia patients (GM04078). The data set is described as follows: Rescue of BSO-stressed FRDA fibroblasts. Format: cell-based. The conditions noted are these: Friedrich’s Ataxia, Calcein AM viability. As to the method: An initial screen was performed to identify compounds effective for the amelioration of redox disorders. Test samples were tested for their ability to rescue FRDA fibroblasts stressed by addition of L-buthionine-(S,R)-sulfoximine (BSO), as described in Jauslin et al., Hum. Mol. Genet. 11(24):3055 (2002), Jauslin et al., FASEB J. 17:1972-4 (2003), and International Patent Application WO 2004/003565.
MEM (a medium enriched in amino acids and vitamins, catalog no. 1-31F24-I) and Medium 199 (M199, catalog no. 1-21F22-I) with Earle’s Balanced Salts, without phenol red, were purchased from Bioconcept. Fetal Calf Serum was obtained from PAA Laboratories. Basic fibroblast growth factor and epidermal growth factor were purchased from PeproTech. Penicillin-streptomycin-glutamine mix, L-buthionine (S,R)-sulfoximine, and insulin from bovine pancreas were purchased from Sigma. Calcein AM was purchased from Anaspec. […]
100 microliters of PBS +Ca +Mg containing 1.2 micromolar Calcein AM were then added to each well. […] After that time fluorescence (excitation/emission wavelengths of 485 nm and 525 nm, respectively) was read on a Gemini fluorescence reader. […]

The subject of data set [4] is cells from patients having Rett’s Disorder (Coriell GM-17567). The data set is described as follows: Fibroblast screen similar to Example 12, Rett’s Disorder cells. It is filed as cell-based. The conditions noted are these: Homo sapiens.
In data set [5] the test system is cells from patients having Huntington’s Disease (Coriell GM 04281). The data set is described as follows: Fibroblast screen similar to Example 12, Huntington’s Disease cells. It is filed as cell-based. As to conditions: Homo sapiens.
Data set [6] deals with cells from patients having a CoQ2 mutation (CoQ10 Deficiency). Put plainly: Fibroblast screen similar to Example 12, CoQ10 Deficiency cells. Format: cell-based. The conditions noted are these: Homo sapiens.
Data set [7] concerns cells from patients having Parkinson’s Disease (Coriell AG20439). The data set is described as follows: Fibroblast screen similar to Example 12, Parkinson’s Disease cells. The conditions noted are these: Homo sapiens. Format: cell-based.
A short description of data set [8]: Competitive slurries of Patterns A-F. It is filed as physicochemical. As to conditions: competitive slurry of Patterns A-F in 0.5% MC/water, ambient. As to the method: Competitive slurry experiments of Patterns A, B, C, D, E and F were initiated in IPA, IPA/2% water and 0.5% Methyl Cellulose in water at ambient conditions as summarized in Table 16. Approximately 100 mg of the starting material, Pattern A, was added to a glass vial fitted with a magnetic stir bar. Solvent was added to the vial and allowed to slurry with Pattern A for 15 minutes before approximately 10-20 mg of each relative Pattern (B, C, D, E and F) was added to each vial.

The test system of data set [9] is cells from patients having Leber’s Hereditary Optic Neuropathy (LHON) (Coriell GM03858). Put plainly: Fibroblast screen similar to Example 12, LHON cells. Format: cell-based. As to conditions: Homo sapiens.

Regarding `CC1=C(C)C(=O)C(CC[C@@](C)(O)C(N)=O)=C(C)C1=O` [(R)-2-hydroxy-2-methyl-4-(2,4,5-trimethyl-3,6-dioxocyclohexa-1,4-dienyl)butanamide], the 50% effective concentration (EC50) in data set [1], in data set [2], in [3], in data set [4], in data set [5] and in data set [6] was below 100 nM in each case. Further, the figures for the concentration for a half-maximal effect (EC50) in data set [7] and in [9] were 100 to 500 nM and below 100 nM, respectively. Besides, the EC25 entry in the data set with auditory HEI-OC 1 cells is “+++ (+++ indicates less than 100 micromolar)”. Besides, the “XRPD 24 hrs” value in data set [8] is “A/C”.

The record behind these values is patent US20230364029A1, “POLYMORPHIC FORMS OF (R)-2-HYDROXY-2-METHYL-4-(2,4,5-TRIMETHYL-3,6-DIOXOCYCLOHEXA-1,4-DIENYL)BUTANAMIDE” (PTC THERAPEUTICS, INC., priority 2014, published 2023).
